Test results reported in ChEMBL document CHEMBL1158119, “Hyrtiazepine, an azepino-indole-type alkaloid from the Red Sea marine sponge Hyrtios erectus” (J Nat Prod, 2006).

Biological target: T1, Phospholipase A2 alpha (Crotalus adamanteus, UniProt P00623)
T1 sequence (P00623 whole entry): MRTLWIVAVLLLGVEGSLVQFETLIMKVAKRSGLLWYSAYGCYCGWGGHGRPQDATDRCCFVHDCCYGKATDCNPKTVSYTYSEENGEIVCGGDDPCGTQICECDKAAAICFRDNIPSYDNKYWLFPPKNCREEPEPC
Assay: Inhibition of Crotalus adamanteus venom phospholipase A2 by fluorometric assay

Row | Compound | IC50 [µM]
1 | O=C(c1c[nH]c2ccc(O)cc12)c1nccc2c1[nH]c1ccc(O)cc12 [HYRTIOSULAWESINE] | 14
2 | CC1=C(CC/C(C)=C/CCC2=CC[C@H](C3=CC(=O)O[C@H]3O)O[C@H]2O)C(C)(C)CCC1 [MANOALIDE] | 0.4
